Entries after “also recorded” stand apart in the source; their conditions may differ. Each block holds one compound with its values, some of them ahead of it.
How the values were obtained:
BMP-4 promoter 1 region = assay: ER-mediated luciferase reporter gene modulation, BMP-4 promoter 1 region constructs, transient transfection of U-2 OS cells with pKCRE-ER; format: cell-based, human; settings: for ER-mediated expression of the reporter gene under control of BMP-4 promoter region (in words): BMP-4 promoter region reporter plus ER expression vector; for Fold Induction: ratio of luciferase activity in presence and absence of compound, U-2 OS, human ER
Text: (§1) Additional fragments of promoter region 1 were generated by progressive exonuclease III digestion (Erase-a-base Kit, Promega), blunt-ended with klenow and deoxynucleotide-triphosphates and subcloned into an endoR SmaI-digested pSLA4 luciferase reporter plasmid.
(§2) The human estrogen receptor (ER)-containing mammalian expression construct pKCRE-ER was constructed in the following way. […] The ER-cDNA was isolated as an endoR SphI/EcoRI fragment comprising nucleotide positions -30 to +1800.
ER-mediated reporter gene modulation by different estrogen analogs of individual promoter region constructs were assayed by transient transfection of osteosarcoma cells (U-2 OS). One day prior to transfection, U-2 OS cells were seeded at a density of 10^5 cells per well (6-well tissue culture plates; Nunc). In this case, the cells were seeded in fenolred-free medium containing 10% (v/v) charcoal-stripped Fetal Calf Serum (csFCS) instead of FCS. DNA was introduced using the lipofection method as described by the supplier (Gibco, BRL). Hereto, the DNA (1 μg receptor construct, 1 μg reporter construct and 250 ng transfection control construct in 250 μL Optimem, Gibco BRL; in different experiments the total amount of transfected DNA was kept constant using pKCRE) was mixed with an equal volume of Lipofectin Reagent (Gibco, BRL) and allowed to stand for 30 min at room temperature. To this was added 500 μL of Optimem (RT) and this mixture was added to the cells, after the latter have been washed with serum-free medium. After a 5 h incubation period at 37° C., the cells were washed with fenolred-free and serum-free medium and incubated overnight in fenolred-free and 10% csFCS medium containing the testcompounds at the concentrations indicated. Prior to the preparation of lysates, cells were washed with PBS (7.6 mM Na2 HPO4 /NAH2 PO4 pH 7.4 and 0.12 M NaCl). Cell extracts were prepared by the addition of 200 μL lysis buffer (0.1 M sodium phosphate buffer pH 7.8 and 0.2% Triton X-100) to the cells and allowed to stand for 5 min at room temperature. Luciferase measurements of cell extracts was performed as described by the supplier (Promega; Luciferase assay system E1501). Hereto, 30 μL of cell extract was added to a […] Optiplate (Packard) and combined with 50 μL of luciferase substrate. The plates were sealed with Topseal film (Packard) and measurements were performed in a Topcount (Packard).

[1] = system: estrogen response element (ERE)-containing promoter; assay: ER-mediated luciferase reporter gene modulation, estrogen response element promoter construct pERE3 TATA-Luc, transient transfection of U-2 OS cells with pKCRE-ER; format: cell-based, human; settings: for expression of the reporter gene under the control of a promoter comprising an estrogen responsive element (ERE) (in words): ERE promoter reporter plus ER expression vector
Text: The estrogen response element (ERE)-containing promoter construct was based on pBL-CAT6 (Boshart et al., Gene 110, 129, 1992). It was modified into a luciferase (Luc) reporter construct by exchanging the endoR XhoI/StyI fragment of pBL CAT6 (containing the chloramphenicol acetyl transferase coding information) by the endoR XhoI/StyI fragment of pXP2 (containing the luciferase coding information; Nordeen et al., Biotechniques 6, 454, 1988). A minimal promoter/TATA-element with the sequence 5'-GGGTATATAAT-3'(SEQ ID NO:8) was inserted in between the endoR XbaI and endoR BamHI sites resulting in plasmid pTATA-Luc. A triple estrogen response element (ERE) with the core sequence
was inserted in the endoR HindIII site resulting in plasmid pERE3 TATA-Luc.
The human estrogen receptor (ER)-containing mammalian expression construct pKCRE-ER was constructed in the following way. The human ER-cDNA was obtained from G. Greene (Ben May Laboratory for Cancer Research, University of Chicago); it encodes a glycine instead of valine at amino acid position 400 (G. Greene et al., Science 231, 1150, 1986 and Tora et al., EMBO. J, 8, 1981, 1989). The ER-cDNA was isolated as an endoR SphI/EcoRI fragment comprising nucleotide positions -30 to +1800. This fragment was blunted by T4-DNA polymerase and inserted in the blunted endoR BamHI site of the mammalian expression construct pKCR (O'Hara et al., Proc.Natl.Acad.Sci.USA, 78, 1527, 1981). The latter plasmid was modified in that the last exon region of the rabbit β-globin gene was removed by digestion with endoR EcoRI/BgIII, filling in, and religation (nucleotide position 1122-1196; Van Ooyen et al., Science 206, 337, 1979) and the replacement of pBR322 for pBR327 sequences.
(§3) ER-mediated reporter gene modulation by different estrogen analogs of individual promoter region constructs were assayed by transient transfection of osteosarcoma cells (U-2 OS). One day prior to transfection, U-2 OS cells were seeded at a density of 10^5 cells per well (6-well tissue culture plates; Nunc). In this case, the cells were seeded in fenolred-free medium containing 10% (v/v) charcoal-stripped Fetal Calf Serum (csFCS) instead of FCS. DNA was introduced using the lipofection method as described by the supplier (Gibco, BRL). Hereto, the DNA (1 μg receptor construct, 1 μg reporter construct and 250 ng transfection control construct in 250 μL Optimem, Gibco BRL; in different experiments the total amount of transfected DNA was kept constant using pKCRE) was mixed with an equal volume of Lipofectin Reagent (Gibco, BRL) and allowed to stand for 30 min at room temperature. To this was added 500 μL of Optimem (RT) and this mixture was added to the cells, after the latter have been washed with serum-free medium. […]

[2] = system: pSLA4 luciferase reporter plasmid; assay: ER-mediated luciferase reporter gene modulation, pSLA4 reporter without BMP-4 promoter region, transient transfection of U-2 OS cells with pKCRE-ER; format: cell-based, human
Text: as §1, §2
as §3, with “temperature.” for “temperature. To this was added 500 μL of Optimem (RT) and this mixture was added to the cells, after the latter have been washed with serum-free medium.”

BMP-4 promoter 2 region = assay: ER-mediated luciferase reporter gene modulation, BMP-4 promoter 2 region constructs, transient transfection of U-2 OS cells with pKCRE-ER; format: cell-based; settings: human ER (FIG. 8, FIG. 9)
Text: as §1, §2
as §3, with “temperature.” for “temperature. To this was added 500 μL of Optimem (RT) and this mixture was added to the cells, after the latter have been washed with serum-free medium.”

[3] = promoter region not further specified

SMILES: CC/C(=C(\c1ccccc1)c1ccc(OCCN(C)C)cc1)c1ccccc1 [tamoxifen]
ER-mediated expression of the reporter gene under control of BMP-4 promoter region (in words) (BMP-4 promoter 1 region; [3]): could be induced and/or stimulated; also recorded: induced expression of the reporter gene
expression of the reporter gene under the control of a promoter comprising an estrogen responsive element (ERE) (in words) [1]: neither of these compounds were able to induce expression of the reporter gene

Fold Induction ([2]; u-2 os cells): 0.7 ± 0.1 fold
Fold Induction ([1]; u-2 os cells): 26 ± 7 fold
SMILES: C[C@]12CC[C@@H]3c4ccc(O)cc4CC[C@H]3[C@@H]1CC[C@@H]2O [Estradiol, 17β-estradiol]
ER-mediated expression of the reporter gene under control of BMP-4 promoter region (in words) (BMP-4 promoter 1 region; promoter region not further specified in the sentence, listed as 17-β-estradiol): did not show a significant transcriptional effect
ER-mediated expression of the reporter gene under control of BMP-4 promoter region (in words) (BMP-4 promoter 1 region; promoter region not further specified in the sentence, listed as 17β-estradiol): did not induce the expression of the reporter gene

SMILES: CC/C(=C(\c1ccc(O)cc1)c1ccc(OCCN(C)C)cc1)c1ccccc1 [4OH-tamoxifen]
ER-mediated expression of the reporter gene under control of BMP-4 promoter region (in words) (BMP-4 promoter 1 region; [3]): can also be achieved

SMILES: CCCCN(C)C(=O)CCCCCCCCCC[C@@H]1Cc2cc(O)ccc2[C@H]2CC[C@]3(C)[C@@H](O)CC[C@H]3[C@H]12 [ICI 164384]
ER-mediated expression of the reporter gene under control of BMP-4 promoter region (in words) (BMP-4 promoter 1 region; [3]): considerable expression of the reporter gene; also recorded: can also be achieved

Fold Induction ([2]; construct pSLA4 (no BMP-4 promoter region), ratio of luciferase activity in presence and absence of compound, U-2 OS, human ER): 1.1 ± 0.2 fold
Fold Induction (BMP-4 promoter 1 region; construct pSLA4.IN+16): 3.8 ± 0.6 fold
Fold Induction (BMP-4 promoter 1 region; construct pSLA4.IN+33): 3.1 ± 0.3 fold
Fold Induction (BMP-4 promoter 1 region; construct pSLA4.IN-42): 1.1 ± 0.2 fold
Fold Induction (BMP-4 promoter 1 region; construct pSLA4.INX): 3.4 ± 0.5 fold
Fold Induction (BMP-4 promoter 1 region; construct pSLA4.1EX (-1166/+173)): 3.7 ± 0.7 fold
Fold Induction (BMP-4 promoter 1 region; construct pSLA4.1PX (-697/+173)): 3.3 ± 0.5 fold
Fold Induction ([1]; construct pERE3 TATA-Luc, ratio of luciferase activity in presence and absence of compound, U-2 OS, human ER): 0.7 ± 0.3 fold
SMILES: O=C(c1ccc(OCCN2CCCCC2)cc1)c1c(-c2ccc(O)cc2)sc2cc(O)ccc12 [Raloxifene, raloxifene]
ER-mediated expression of the reporter gene under control of BMP-4 promoter region (in words) (BMP-4 promoter 1 region; [3]): could be induced and/or stimulated; also recorded: induced expression of the reporter gene
expression of the reporter gene under the control of a promoter comprising an estrogen responsive element (ERE) (in words) [1]: neither of these compounds were able to induce expression of the reporter gene
ER-mediated effect on BMP-4 promoter 2 region reporter (in words) (BMP-4 promoter 2 region): also apparent

From patent publication US6159696A, “Isolated human BMP-4 promoter region” (priority 1996, dated 2000)
